Laboratory results from patent US7858621B2 (Amorepacific Corporation, priority 2006, dated 2010).
pIC50: −log10 of the molar value. Structures can show the parent of a compound that is named as a salt.

The compounds below were run against T1, vanilloid receptor (Rattus norvegicus, UniProt O35433) (assay: 45Ca influx test in cultured neonatal rat DRG neurons, inhibition of capsaicin response). Details: neonatal rat DRG neurons, capsaicin 0.5 μM, 45Ca influx; read-out: Antagonist Calcium Uptake Test (IC50).
T1 construct: DRG nerve cells from the primary culture of 2 days were equilibrated; endogenous in cells; host or cells: primary culture of dorsal root ganglion neurons from neonatal SD rats
T1 sequence (O35433 whole entry): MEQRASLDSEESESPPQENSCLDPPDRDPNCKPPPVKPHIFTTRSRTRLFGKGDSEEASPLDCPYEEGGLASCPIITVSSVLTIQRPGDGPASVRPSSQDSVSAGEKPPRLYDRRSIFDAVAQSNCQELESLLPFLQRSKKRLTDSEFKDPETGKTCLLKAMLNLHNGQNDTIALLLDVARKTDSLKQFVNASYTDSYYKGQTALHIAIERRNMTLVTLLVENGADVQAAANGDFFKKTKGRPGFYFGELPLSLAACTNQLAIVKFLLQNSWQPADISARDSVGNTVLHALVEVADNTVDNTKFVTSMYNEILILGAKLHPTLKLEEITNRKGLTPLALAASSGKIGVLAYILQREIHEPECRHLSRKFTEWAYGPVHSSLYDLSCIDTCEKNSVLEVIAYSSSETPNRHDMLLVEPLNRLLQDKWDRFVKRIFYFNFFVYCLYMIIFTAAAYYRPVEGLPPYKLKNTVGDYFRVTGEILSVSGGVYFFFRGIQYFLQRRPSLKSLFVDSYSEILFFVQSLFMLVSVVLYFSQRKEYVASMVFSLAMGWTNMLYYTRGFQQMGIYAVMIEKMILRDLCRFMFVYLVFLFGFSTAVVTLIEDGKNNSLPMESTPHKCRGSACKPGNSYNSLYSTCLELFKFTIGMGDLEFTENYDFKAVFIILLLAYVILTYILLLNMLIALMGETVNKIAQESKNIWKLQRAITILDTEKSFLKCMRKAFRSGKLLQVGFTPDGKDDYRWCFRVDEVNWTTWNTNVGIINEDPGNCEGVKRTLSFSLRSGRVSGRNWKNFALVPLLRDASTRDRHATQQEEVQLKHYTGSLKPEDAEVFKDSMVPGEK
Format: cell-based
How it was run: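 45Ca influx measured by scintillation counting of SDS-eluted neurons after 10 min at room temperature with test compound, 0.5 μM capsaicin (final) and 10 μCi/ml 45Ca in Ca/Mg-free HEPES-HBSS pH 7.4. Cells: primary DRG neurons from newborn SD rats, cultured 2 days with NGF and Ara-C.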
With CC(C)Oc1nc(C(F)(F)F)ccc1/C=C/C(=O)NCc1cc(F)c(NS(C)(=O)=O)c(C#N)c1 [Example 109, N-(3-Cyano-5-fluoro-4-methanesulfonylamino-benzyl)-3-(2-isopropoxy-6-trifluoromethyl-pyridin-3-yl)-acrylamide] the pIC50 was 6.82.
C#Cc1cc(CNC(=O)/C=C/c2ccc(C(F)(F)F)nc2N2CCC(C(=O)OCC)CC2)cc(F)c1NS(C)(=O)=O [Example 110, AT-(3-Ethynyl-5-fluoro-4-methansulfonylamino-benzyl)-3-[2-(4-ethoxycarbonyl-piperid-1-yl)-6-trifluoromethyl-pyridin-3-yl]-acrylamide] gave a pIC50 of 6.24.
CCOC(=O)C1CCN(c2nc(C(F)(F)F)ccc2/C=C/C(=O)NCc2cc(F)c(NS(C)(=O)=O)c(C#N)c2)CC1 [Example 111, N-(3-Cyano-5-fluoro-4-methansulfonylamino-benzyl)-3-[2-(4-ethoxycarbonyl-piperid-1-yl)-6-trifluoromethyl-pyridin-3-yl]-acrylamide] was tested, and the pIC50 was 6.09.
Compound CS(=O)(=O)Nc1ccc(CNC(=O)/C=C/c2ccc(C(F)(F)F)nc2OCc2ccccc2)cc1F [Example 112, 3-(2-Benzyloxy-6-trifluoromethyl-pyridin-3-yl)-N-(3-fluoro-4-methanesulfonylamino-benzyl)-acrylamide] has a pIC50 of 5.85.
With C#Cc1cc(CNC(=O)/C=C/c2ccc(C(F)(F)F)nc2Nc2ccccc2)cc(F)c1NS(C)(=O)=O [Example 113, N-(3-Ethynyl-5-fluoro-4-methanesulfonylamino-benzyl)-3-(2-phenylamino-6-trifluoromethyl-pyridin-3-yl)-acrylamide] the pIC50 was 6.57.
With C#Cc1cc(CNC(=O)/C=C/c2ccc(C(F)(F)F)nc2N2CCCC(C(=O)OCC)C2)cc(F)c1NS(C)(=O)=O (centres unmarked) [Example 114, N-(3-Ethynyl-5-fluoro-4-methansulfonylamino-benzyl)-3-[2-(3-ethoxycarbonyl-piperid-1-yl)-6-trifluoromethyl-pyridin-3-yl]-acrylamide] the pIC50 was 6.37.
Work on CCOC(=O)C1CCCN(c2nc(C(F)(F)F)ccc2/C=C/C(=O)NCc2cc(F)c(NS(C)(=O)=O)c(C#N)c2)C1 (centres unmarked) [Example 115, N-(3-Cyano-5-fluoro-4-methansulfonylamino-benzyl)-3-[2-(3-ethoxycarbonyl-piperid-1-yl)-6-trifluoromethyl-pyridin-3-yl]-acrylamide] yielded a pIC50 of 6.33.
Work on C#Cc1cc(CNC(=O)/C=C/c2ccc(C(F)(F)F)nc2N2CCNCC2)cc(F)c1NS(C)(=O)=O [Example 116, N-(3-Ethynyl-5-fluoro-4-methanesulfonylamino-benzyl)-3-(2-piperaz-1-yl-6-trifluoromethyl-pyridin-3-yl)-acrylamide, HCl salt] yielded a pIC50 of 5.35.
C#Cc1cc(CNC(=O)/C=C/c2ccc(C(F)(F)F)nc2NC(C)CC)cc(F)c1NS(C)(=O)=O (centres unmarked) [Example 117, 3-(2-sec-Butylamino-6-trifluoromethyl-pyridin-3-yl)-N-(3-ethynyl-5-fluoro-4-methanesulfonylamino-benzyl)-acrylamide] gave a pIC50 of 7.11.
CC(C)CCOc1nc(C(F)(F)F)ccc1/C=C/C(=O)NCc1cc(F)c(NS(C)(=O)=O)c(C#N)c1 [Example 118, N-(3-Cyano-5-fluoro-4-methanesulfonylamino-benzyl)-3-[2-(3-methyl-butoxy)-6-trifluoromethyl-pyridin-3-yl]-acrylamide] showed a pIC50 of 6.70.
With C#Cc1cc(CNC(=O)/C=C/c2ccc(C(F)(F)F)nc2-c2ccsc2)cc(F)c1NS(C)(=O)=O [Example 119, N-(3-Ethynyl-5-fluoro-4-methanesulfonylamino-benzyl)-3-(2-thien-3-yl-6-trifluoromethyl-pyridin-3-yl)-acrylamide] the pIC50 was 6.57.
C#Cc1cc(CNC(=O)/C=C/c2ccc(C(F)(F)F)nc2-c2cccc(F)c2)cc(F)c1NS(C)(=O)=O [Example 120, N-(3-Ethynyl-5-fluoro-4-methanesulfonylamino-benzyl)-3-[2-(3-fluoro-phenyl)-6-trifluoromethyl-pyridin-3-yl]-acrylamide] gave a pIC50 of 6.51.
In the case of CC(C)Nc1nc(C(F)(F)F)ccc1/C=C/C(=O)NCc1ccc(NS(C)(=O)=O)c(F)c1 [Example 121, N-(3-Fluoro-4-methanesulfonylamino-benzyl)-3-(2-isopropylamino-6-trifluoromethyl-pyridin-3-yl)-acrylamide], the pIC50 was 6.92.
CC(C)Nc1nc(C(F)(F)F)ccc1/C=C/C(=O)NCc1cc(F)c(NS(C)(=O)=O)c(C#N)c1 [Example 122, N-(3-Cyano-5-fluoro-4-methanesulfonylamino-benzyl)-3-(2-isopropylamino-6-trifluoromethyl-pyridin-3-yl)-acrylamide] showed a pIC50 of 7.12.
CCC(C)Nc1nc(C(F)(F)F)ccc1/C=C/C(=O)NCc1ccc(NS(C)(=O)=O)c(F)c1 (centres unmarked) [Example 123, 3-(2-sec-Butylamino-6-trifluoromethyl-pyridin-3-yl)-N-(3-fluoro-4-methanesulfonylamino-benzyl)-acrylamide] gave a pIC50 of 7.03.
Compound CCC(C)Nc1nc(C(F)(F)F)ccc1/C=C/C(=O)NCc1cc(F)c(NS(C)(=O)=O)c(C#N)c1 (centres unmarked) [Example 124, 3-(2-sec-Butylamino-6-trifluoromethyl-pyridin-3-yl)-N-(3-cyano-5-fluoro-4-methanesulfonylamino-benzyl)-acrylamide] has a pIC50 of 7.06.
C#Cc1cc(CNC(=O)/C=C/c2ccc(C(F)(F)F)nc2-c2cccc(OC)c2)cc(F)c1NS(C)(=O)=O [Example 125, N-(3-Ethynyl-5-fluoro-4-methanesulfonylamino-benzyl)-3-[2-(3-methoxy-phenyl)-6-trifluoromethyl-pyridin-3-yl]-acrylamide] was tested, and the pIC50 was less than 6.00.
Work on C#Cc1cc(CNC(=O)/C=C/c2ccc(C(F)(F)F)nc2-c2cccnc2)cc(F)c1NS(C)(=O)=O [Example 126, N-(3-Ethynyl-5-fluoro-4-methanesulfonylamino-benzyl)-3-(2-pyridin-3-yl-6-trifluoromethyl-pyridin-3-yl)-acrylamide] yielded a pIC50 of 5.31.
In the case of CS(=O)(=O)Nc1ccc(CNC(=O)/C=C/c2ccc(C(F)(F)F)nc2Nc2ccccc2)cc1F [Example 127, N-(3-Fluoro-4-methanesulfonylamino-benzyl)-3-(2-phenylamino-6-trifluoromethyl-pyridin-3-yl)-acrylamide], the pIC50 was 6.49.
With CS(=O)(=O)Nc1c(F)cc(CNC(=O)/C=C/c2ccc(C(F)(F)F)nc2Nc2ccccc2)cc1C#N [Example 128, N-(3-Cyano-5-fluoro-4-methanesulfonylamino-benzyl)-3-(2-phenylamino-6-trifluoromethyl-pyridin-3-yl)-acrylamide] the pIC50 was 6.22.
In the case of CCC(C)Nc1nc(C(F)(F)F)ccc1/C=C/C(=O)NCc1cc(F)c(NS(C)(=O)=O)c(F)c1 (centres unmarked) [Example 129, 3-(2-sec-Butylamino-6-trifluoromethyl-pyridin-3-yl)-N-(3,5-difluoro-4-methanesulfonylamino-benzyl)-acrylamide], the pIC50 was 7.33.
For CCC(C)Nc1nc(C(F)(F)F)ccc1/C=C/C(=O)NCc1cc(C)c(NS(C)(=O)=O)c(F)c1 (centres unmarked) [Example 130, 3-(2-sec-Butylamino-6-trifluoromethyl-pyridin-3-yl)-N-(3-fluoro-4-methanesulfonylamino-5-methyl-benzyl)-acrylamide], the pIC50 was 7.27.
With CS(=O)(=O)Nc1ccc(CNC(=O)/C=C/c2ccc(C(F)(F)F)nc2Oc2ccccc2)cc1F [Example 132, N-(3-Fluoro-4-methanesulfonylamino-benzyl)-3-(2-phenoxy-6-trifluoromethyl-pyridin-3-yl)-acrylamide] the pIC50 was less than 5.52.
